In US12209081B2 (Katholieke Universiteit Leuven, priority 2020, dated 2025):

Target: mouse TRPM3α2 (mTRPM3) ion channel (Mus musculus (Mouse), UniProt J9SQF3)
Test: TRPM3 ion channel driven Ca2+ uptake, Fluo-4 AM assay, mTRPM3alpha2 overexpressing flip-in HEK293 cells stimulated with pregnenolone sulfate
Type: cell-based
Outline: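 Read-out is Ca2+ influx via Fluo-4 AM fluorescence at 485/535 nm, taken right after seeding ~2000 cells/well onto compound with 50 μM PS. Inhibition computed from RFU between vehicle-stimulated and positive-control-inhibitor wells; cells were mTRPM3α2-overexpressing flip-in HEK293.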

[1] = PS (50 μM) stimulated, cpds. 400-499
[2] = PS (50 μM) stimulated, cpd 001-199
[3] = PS (50 μM) stimulated, cpds. 667-751
[4] = PS (50 μM) stimulated, cpds. 500-599
[5] = PS (50 μM) stimulated, cpds. 608-666

Sequence of mouse TRPM3α2 (mTRPM3) ion channel (J9SQF3 other isoform, or with tags, fused parts or gaps): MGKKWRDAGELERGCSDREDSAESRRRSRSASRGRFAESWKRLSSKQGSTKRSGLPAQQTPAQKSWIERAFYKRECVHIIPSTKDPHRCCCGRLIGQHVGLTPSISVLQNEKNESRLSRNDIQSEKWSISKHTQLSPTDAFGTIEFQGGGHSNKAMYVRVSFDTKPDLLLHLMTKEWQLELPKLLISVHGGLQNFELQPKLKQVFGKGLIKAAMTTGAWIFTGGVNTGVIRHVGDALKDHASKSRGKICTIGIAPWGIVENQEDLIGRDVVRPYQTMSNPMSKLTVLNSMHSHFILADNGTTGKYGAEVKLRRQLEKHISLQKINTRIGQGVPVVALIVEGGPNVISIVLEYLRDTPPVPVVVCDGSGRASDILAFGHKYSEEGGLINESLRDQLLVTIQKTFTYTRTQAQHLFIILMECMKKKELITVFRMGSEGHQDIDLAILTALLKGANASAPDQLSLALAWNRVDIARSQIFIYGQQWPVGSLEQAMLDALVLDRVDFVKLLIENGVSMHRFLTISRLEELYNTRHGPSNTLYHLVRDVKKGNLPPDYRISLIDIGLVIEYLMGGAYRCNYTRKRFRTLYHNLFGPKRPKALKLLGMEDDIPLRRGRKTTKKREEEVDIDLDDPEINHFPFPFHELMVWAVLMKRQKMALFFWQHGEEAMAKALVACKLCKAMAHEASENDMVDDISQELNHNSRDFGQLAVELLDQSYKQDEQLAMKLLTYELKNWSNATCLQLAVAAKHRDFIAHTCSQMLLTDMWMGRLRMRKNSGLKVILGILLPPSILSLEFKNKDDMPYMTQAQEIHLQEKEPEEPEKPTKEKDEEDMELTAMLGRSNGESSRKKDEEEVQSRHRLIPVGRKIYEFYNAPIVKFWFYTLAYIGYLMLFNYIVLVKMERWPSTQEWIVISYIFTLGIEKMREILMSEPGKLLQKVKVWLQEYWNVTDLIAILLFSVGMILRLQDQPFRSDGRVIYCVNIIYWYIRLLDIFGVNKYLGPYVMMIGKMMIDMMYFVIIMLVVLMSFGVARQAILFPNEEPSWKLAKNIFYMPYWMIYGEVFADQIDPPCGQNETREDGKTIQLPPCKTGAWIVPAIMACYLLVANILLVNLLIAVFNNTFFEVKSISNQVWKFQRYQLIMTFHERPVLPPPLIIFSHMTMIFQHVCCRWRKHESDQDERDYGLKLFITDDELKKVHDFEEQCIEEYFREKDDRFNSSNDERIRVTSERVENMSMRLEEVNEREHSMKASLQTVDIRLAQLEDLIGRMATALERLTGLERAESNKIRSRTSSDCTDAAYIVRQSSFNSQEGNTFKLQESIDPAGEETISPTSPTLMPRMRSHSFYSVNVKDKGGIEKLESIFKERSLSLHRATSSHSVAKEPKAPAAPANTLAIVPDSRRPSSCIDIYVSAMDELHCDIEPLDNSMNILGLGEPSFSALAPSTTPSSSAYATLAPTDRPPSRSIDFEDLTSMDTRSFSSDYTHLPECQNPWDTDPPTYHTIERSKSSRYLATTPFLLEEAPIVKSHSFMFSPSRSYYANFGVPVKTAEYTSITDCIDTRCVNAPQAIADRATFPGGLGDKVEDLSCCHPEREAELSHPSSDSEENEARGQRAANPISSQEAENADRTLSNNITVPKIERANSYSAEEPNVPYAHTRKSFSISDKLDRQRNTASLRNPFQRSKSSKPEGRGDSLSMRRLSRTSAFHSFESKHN

## Cc1ncccc1COc1ccc2oc(C)c(C(=O)N[C@@H](CO)C(N)=O)c2c1 [compound 284, (S)-N-(1-amino-3-hydroxy-1-oxopropan-2-yl)-2-methyl-5-((2-methylpyridin-3-yl)methoxy)benzofuran-3-carboxamide]
PS 50 μM, cpds 200-299
  IC50: < 1 µM

## Cc1ncc(COc2ccc3oc(C)c(C(=O)NC(C)(CO)CO)c3c2)s1 [compound 425, N-(1,3-dihydroxy-2-methylpropan-2-yl)-2-methyl-5-((2-methylthiazol-5-yl)methoxy)benzofuran-3-carboxamide]
[1]
  IC50: < 1 µM

## Cc1oc2cc(C#N)c(OCc3cccnc3C(F)(F)F)cc2c1C(=O)NC1CCNCC1(F)F (single isomer, unassigned) [195-En 1, 6-cyano-N-(3,3-difluoropiperidin-4-yl)-2-methyl-5-((2-(trifluoromethyl)pyridin-3-yl)methoxy) -benzofuran-3-carboxamide]
[2]
  IC50: > 20 µM

## Cc1ncc(COc2ccc3oc(C)c(C(=O)N[C@H](C(N)=O)[C@@H](C)O)c3c2)s1 [compound 377, N-((2S,3R)-1-amino-3-hydroxy-1-oxobutan-2-yl)-2-methyl-5-((2-methylthiazol-5-yl)methoxy)benzofuran-3-carboxamide]
PS 50 μM, cpds 300-399
  IC50: < 1 µM

## Cc1ccc(COc2ccc3oc(C)c(C(=O)N[C@@H](CO)C(N)=O)c3c2)nc1 [compound 700, (S)-N-(1-Amino-3-hydroxy-1-oxopropan-2-yl)-2-methyl-5-((5-methylpyridin-2-yl)methoxy)benzofuran-3-carboxamide]
[3]
  IC50: < 1 µM

## Cc1nc(C)c(COc2ccc3oc(C)c(C(=O)N[C@@H](CO)C(N)=O)c3c2)o1 [compound 678, (S)-N-(1-Amino-3-hydroxy-1-oxopropan-2-yl)-5-((2. 4-dimethyloxazol-5-yl)methoxy)-2-methylbenzofuran-3-carboxamide]
[3]
  IC50: < 1 µM

## Cc1ncc(COc2ccc3oc(C)c(C(=O)NC4(CO)CCNC4)c3c2)s1 (single isomer, unassigned) [530-En 1, N-(3-(hydroxymethyl)pyrrolidin-3-yl)-2-methyl-5-((2-methylthiazol-5-yl)methoxy)benzofuran-3-carboxamide]
[4]
  IC50: 1 to 20 µM

## Cc1ccc(COc2ccc3oc(C)c(C(=O)NC4CCNCC4(F)F)c3c2)nn1 (single isomer, unassigned) [cpd 556-En 2]
[4]
  IC50: > 20 µM

## Cc1oc2ccc(OCc3cccnc3C(F)(F)F)cc2c1C(=O)NC1CCN(CCO)C1=O (single isomer, unassigned) [120-En 1, N-(1-(2-hydroxyethyl)-2-oxopyrrolidin-3-yl)-2-methyl-5-((2 (trifluoromethyl)pyridin-3-yl)methoxy)benzofuran-3-carboxamide]
[2]
  IC50: < 1 µM

## Cc1oc2ccc(OCc3ncccc3C(F)F)cc2c1C(=O)NC1CCNCC1(F)F (stereo not shown) [compound 717, 5-((3-(Difluoromethyl)pyridin-2-yl)methoxy)-N-(3,3-difluoropiperidin-4-yl)-2-methylbenzofuran-3-carboxamide]
[3]
  IC50: < 1 µM

## Cc1cc(COc2ccc3oc(C)c(C(=O)NC4CCNCC4(F)F)c3c2)no1 (single isomer, unassigned) [cpd 553-En 2]
[4]
  IC50: 1 to 20 µM

## Cc1oc2ccc(OCc3ccc(O)nc3)cc2c1C(=O)NC1(CO)CCOCC1 [compound 631, N-(4-(hydroxymethyl)tetrahydro-2H-pyran-4-yl)-5-((6-hydroxypyridin-3-yl)methoxy)-2-methylbenzofuran-3-carboxamide]
[5]
  IC50: > 20 µM

## Cc1oc2ccc(OCc3ccccn3)cc2c1C(=O)NC1(CO)CC1 [compound 419, N-(1-(hydroxymethyl)cyclopropyl)-2-methyl-5-(pyridin-2-ylmethoxy)benzofuran-3-carboxamide]
[1]
  IC50: < 1 µM

## Cc1oc2ccc(OCc3cccnc3C(F)F)cc2c1C(=O)NC1(CO)COC1 [compound 341, 5-((2-(difluoromethyl)pyridin-3-yl)methoxy)-N-(3-(hydroxymethyl)oxetan-3-yl)-2-methylbenzofuran-3-carboxamide]
PS 50 μM, cpds 300-399
  IC50: < 1 µM

## Cc1oc2ccc(OCc3ccc(F)cn3)cc2c1C(=O)N[C@H](C(N)=O)[C@@H](C)O [compound 696, N-((2S,3R)-1-amino-3-hydroxy-1-oxobutan-2-yl)-5-((5-fluoropyridin-2-yl)methoxy)-2-methylbenzofuran-3-carboxamide]
[3]
  IC50: < 1 µM

## Cc1ncsc1COc1ccc2oc(C(F)F)c(C(=O)N[C@@H](CO)C(N)=O)c2c1 [compound 742, (S)-N-(1-amino-3-hydroxy-1-oxopropan-2-yl)-2-(difluoromethyl)-5-((4-methylthiazol-5-yl)methoxy)benzofuran-3-carboxamide]
[3]
  IC50: < 1 µM

## Cc1oc2ccc(OCc3ccccn3)cc2c1C(=O)NC(C)(CO)C(N)=O (single isomer, unassigned) [cpd 738-En 1]
[3]
  IC50: < 1 µM

## Cc1cc(COc2ccc3oc(C)c(C(=O)NC4(CO)CCOCC4)c3c2)no1 [compound 618, N-(4-(hydroxymethyl)tetrahydro-2H-pyran-4-yl)-2-methyl-5-((5-methylisoxazol-3-yl)methoxy)benzofuran-3-carboxamide]
[5]
  IC50: < 1 µM

## Cc1oc2ccc(OCc3cccnc3O)cc2c1C(=O)NC1(CO)CCC1 [compound 416, N-(1-(hydroxymethyl)cyclobutyl)-5-((2-hydroxypyridin-3-yl)methoxy)-2-methylbenzofuran-3-carboxamide]
[1]
  IC50: < 1 µM

## Cc1oc2ccc(OCc3ccnn3CC(F)F)cc2c1C(=O)N[C@@H](CO)C(N)=O [compound 295, (S)-N-(1-amino-3-hydroxy-1-oxopropan-2-yl)-5-((1-(2,2-difluoroethyl)-1H-pyrazol-5-yl)methoxy)-2-methylbenzofuran-3-carboxamide]
PS 50 μM, cpds 200-299
  IC50: < 1 µM

## Cc1oc2ccc(OCc3ncccc3F)cc2c1C(=O)NC1(CO)CCOCC1 [compound 352, 5-((3-fluoropyridin-2-yl)methoxy)-N-(4-(hydroxymethyl)tetrahydro-2H-pyran-4-yl)-2-methylbenzofuran-3-carboxamide]
PS 50 μM, cpds 300-399
  IC50: < 1 µM

## Cc1ncsc1COc1ccc2oc(C(F)F)c(C(=O)NC3(C(N)=O)COC3)c2c1 [compound 577, N-(3-carbamoyloxetan-3-yl)-2-(difluoromethyl)-5-((4-methylthiazol-5-yl)methoxy)benzofuran-3-carboxamide]
[4]
  IC50: < 1 µM

## Cc1ncsc1COc1ccc2oc(C)c(C(=O)NCC(F)(F)F)c2c1 [compound 666, 2-methyl-5-((4-methylthiazol-5-yl)methoxy)-N-(2,2,2-trifluoroethyl)benzofuran-3-carboxamide]
[5]
  IC50: < 1 µM

## Cc1oc2ccc(OCc3c[nH]nc3C(F)(F)F)cc2c1C(=O)NC1(CO)CCOCC1 [compound 615, N-(4-(hydroxymethyl)tetrahydro-2H-pyran-4-yl)-2-methyl-5-((3-(trifluoromethyl)-1H-pyrazol-4-yl)methoxy)benzofuran-3-carboxamide]
[5]
  IC50: < 1 µM

## Cc1oc2ccc(OCc3cccnc3OC(F)F)cc2c1C(=O)NC1CCNCC1(F)F (single isomer, unassigned) [cpd 338-En 2]
PS 50 μM, cpds 300-399
  IC50: < 1 µM

## Cc1oc2ccc(OCc3ccncn3)cc2c1C(=O)N[C@@H](CO)C(N)=O [compound 294, (S)-N-(1-amino-3-hydroxy-1-oxopropan-2-yl)-2-methyl-5-(pyrimidin-4-ylmethoxy)benzofuran-3-carboxamide]
PS 50 μM, cpds 200-299
  IC50: < 1 µM

## Cc1ncsc1COc1ccc2oc(C)c(C(=O)NC(CO)C(N)=O)c2c1 (stereo not shown) [compound 454, N-(1-amino-3-hydroxy-1-oxopropan-2-yl)-2-methyl-5-((4-methylthiazol-5-yl)methoxy)benzofuran-3-carboxamide]
[1]
  IC50: < 1 µM

## Cc1oc2ccc(OCc3ccccn3)cc2c1C(=O)NC1(CO)COC1 [compound 526, N-(3-(hydroxymethyl)oxetan-3-yl)-2-methyl-5-(pyridin-2-ylmethoxy)benzofuran-3-carboxamide]
[4]
  IC50: < 1 µM

## Cc1oc2ccc(OCc3cn(C)nn3)cc2c1C(=O)NC1CCNCC1(F)F (single isomer, unassigned) [cpd 540-En 1]
[4]
  IC50: 1 to 20 µM

## COc1ncccc1COc1ccc2oc(C)c(C(=O)N[C@@H](C)CO)c2c1 [compound 496, (S)-N-(1-hydroxypropan-2-yl)-5-((2-methoxypyridin-3-yl)methoxy)-2-methylbenzofuran-3-carboxamide]
[1]
  IC50: < 1 µM

## Cc1oc2ccc(OCc3cnnn3C)cc2c1C(=O)NC1CCNCC1(F)F (single isomer, unassigned) [cpd 541-En 1]
[4]
  IC50: 1 to 20 µM

## Cc1ncc(COc2ccc3oc(C)c(C(=O)NC4(CO)CC4)c3c2)s1 [compound 418, N-(1-(hydroxymethyl)cyclopropyl)-2-methyl-5-((2-methylthiazol-5-yl)methoxy)benzofuran-3-carboxamide]
[1]
  IC50: < 1 µM

## Cc1oc2ccc(OCc3c(F)cnn3C)cc2c1C(=O)N[C@@H](CO)C(N)=O [compound 302, (S)-N-(1-amino-3-hydroxy-1-oxopropan-2-yl)-5-((4-fluoro-1-methyl-1H-pyrazol-5-yl)methoxy) -2-methylbenzofuran-3-carboxamide]
PS 50 μM, cpds 300-399
  IC50: < 1 µM

## Cc1oc2ccc(OCc3cccnc3)cc2c1C(=O)NC1(CO)CCOCC1 [compound 625, N-(4-(hydroxymethyl)tetrahydro-2H-pyran-4-yl)-2-methyl-5-(pyridin-3-ylmethoxy)benzofuran-3-carboxamide]
[5]
  IC50: < 1 µM

## Cc1ncc(COc2ccc3oc(C)c(C(=O)NC(C)(CO)C(N)=O)c3c2)o1 (single isomer, unassigned) [cpd 722-En 2]
[3]
  IC50: < 1 µM

## Cc1oc2ccc(OCc3nccn3C)cc2c1C(=O)NC1CCNCC1(F)F (single isomer, unassigned) [cpd 205-En 2]
PS 50 μM, cpds 200-299
  IC50: < 1 µM

## Cc1ncsc1COc1ccc2oc(C)c(C(=O)Nc3ccn(C)n3)c2c1 [compound 161, 2-methyl-N-(1-methyl-1H-pyrazol-3-yl)-5-((4-methylthiazol-5-yl)methoxy)benzofuran-3-carboxamide]
[2]
  IC50: < 1 µM
